The structures appear in SMILES notation.

The target in one assay is T1, PI3K delta (Homo sapiens, UniProt O00329).
T1 construct: for the full-length p110-d subunit are generated and fused by overlapping PCR; His tag (C); made in house; host or cells: baculovirus BV1060; Tn5 (Trichoplusia ni) or TiniPro insect cells
The assay is described as follows: PI3K delta kinase assay (Kinase-Glo luminescence). Type of assay: biochemical. Conditions: read-out: EPK_PI3Kdelta/IC50. The essentials:
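Kinase-Glo ATP-depletion luminescence using 10 nM p85(iSH2)-linker-p110δ full-length His-tag construct from insect cells, with 1 μM ATP and 10 μg/mL phosphatidylinositol in 10 mM Tris pH 7.5, 3 mM MgCl2, 50 mM NaCl, 0.05% CHAPS, 1 mM DTT. 60 min room temperature; IC50 from 4-parameter logistic fit over 8 concentrations.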
A general note: Kinase-Glo measures the ATP left after a reaction by luminescence.

A further assay concerns the target T2, PI3K alfa (Homo sapiens, UniProt P42336).
T2 construct: His tag (C); made in house; host or cells: baculovirus BV1075; Tn5 (Trichoplusia ni) or TiniPro insect cells
The assay is described as follows: PI3K alpha kinase assay (Kinase-Glo luminescence). To be noted: read-out: EPK_PI3Kalfa/IC50. In kind it is biochemical. Summed up:
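Kinase-Glo luminescence read of ATP remaining after PI3Kα (10 nM) phosphorylates 10 μg/mL bovine liver phosphatidylinositol with 1 μM ATP, pH 7.5 TRIS, 3 mM MgCl2, 0.05% CHAPS; 60 min at room temperature. IC50 from 4-parameter logistic fit over 8 concentrations.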

T1 sequence (O00329 with tags, fused parts or gaps limits assumed): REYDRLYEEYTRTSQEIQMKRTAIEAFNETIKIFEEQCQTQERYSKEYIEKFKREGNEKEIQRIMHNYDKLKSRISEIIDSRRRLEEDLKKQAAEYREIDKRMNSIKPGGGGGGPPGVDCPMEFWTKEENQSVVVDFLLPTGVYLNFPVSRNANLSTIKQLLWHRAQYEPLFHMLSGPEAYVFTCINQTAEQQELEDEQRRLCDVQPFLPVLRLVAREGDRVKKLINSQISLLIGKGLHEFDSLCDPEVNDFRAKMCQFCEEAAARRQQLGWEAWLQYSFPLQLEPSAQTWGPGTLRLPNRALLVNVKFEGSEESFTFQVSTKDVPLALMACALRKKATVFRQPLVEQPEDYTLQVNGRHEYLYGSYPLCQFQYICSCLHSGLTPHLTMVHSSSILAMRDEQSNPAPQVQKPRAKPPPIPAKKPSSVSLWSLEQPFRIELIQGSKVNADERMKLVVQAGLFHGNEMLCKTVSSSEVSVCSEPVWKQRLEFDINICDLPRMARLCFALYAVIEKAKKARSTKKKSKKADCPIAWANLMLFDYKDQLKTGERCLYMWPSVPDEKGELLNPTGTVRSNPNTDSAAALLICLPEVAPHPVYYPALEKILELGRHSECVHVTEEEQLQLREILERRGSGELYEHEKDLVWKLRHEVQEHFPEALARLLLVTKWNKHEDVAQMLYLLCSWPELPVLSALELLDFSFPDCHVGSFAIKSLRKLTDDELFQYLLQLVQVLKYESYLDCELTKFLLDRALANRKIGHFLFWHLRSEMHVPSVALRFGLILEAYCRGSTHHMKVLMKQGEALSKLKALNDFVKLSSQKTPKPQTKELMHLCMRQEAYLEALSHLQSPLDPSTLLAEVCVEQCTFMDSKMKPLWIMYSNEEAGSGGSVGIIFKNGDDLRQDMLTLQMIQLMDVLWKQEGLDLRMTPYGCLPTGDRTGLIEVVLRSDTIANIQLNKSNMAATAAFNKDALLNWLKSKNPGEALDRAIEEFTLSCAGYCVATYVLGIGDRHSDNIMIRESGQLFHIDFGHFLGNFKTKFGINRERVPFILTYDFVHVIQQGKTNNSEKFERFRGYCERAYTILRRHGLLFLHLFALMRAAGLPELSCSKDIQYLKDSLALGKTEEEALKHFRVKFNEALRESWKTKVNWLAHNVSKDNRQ
T2 sequence (P42336 with tags, fused parts or gaps limits assumed): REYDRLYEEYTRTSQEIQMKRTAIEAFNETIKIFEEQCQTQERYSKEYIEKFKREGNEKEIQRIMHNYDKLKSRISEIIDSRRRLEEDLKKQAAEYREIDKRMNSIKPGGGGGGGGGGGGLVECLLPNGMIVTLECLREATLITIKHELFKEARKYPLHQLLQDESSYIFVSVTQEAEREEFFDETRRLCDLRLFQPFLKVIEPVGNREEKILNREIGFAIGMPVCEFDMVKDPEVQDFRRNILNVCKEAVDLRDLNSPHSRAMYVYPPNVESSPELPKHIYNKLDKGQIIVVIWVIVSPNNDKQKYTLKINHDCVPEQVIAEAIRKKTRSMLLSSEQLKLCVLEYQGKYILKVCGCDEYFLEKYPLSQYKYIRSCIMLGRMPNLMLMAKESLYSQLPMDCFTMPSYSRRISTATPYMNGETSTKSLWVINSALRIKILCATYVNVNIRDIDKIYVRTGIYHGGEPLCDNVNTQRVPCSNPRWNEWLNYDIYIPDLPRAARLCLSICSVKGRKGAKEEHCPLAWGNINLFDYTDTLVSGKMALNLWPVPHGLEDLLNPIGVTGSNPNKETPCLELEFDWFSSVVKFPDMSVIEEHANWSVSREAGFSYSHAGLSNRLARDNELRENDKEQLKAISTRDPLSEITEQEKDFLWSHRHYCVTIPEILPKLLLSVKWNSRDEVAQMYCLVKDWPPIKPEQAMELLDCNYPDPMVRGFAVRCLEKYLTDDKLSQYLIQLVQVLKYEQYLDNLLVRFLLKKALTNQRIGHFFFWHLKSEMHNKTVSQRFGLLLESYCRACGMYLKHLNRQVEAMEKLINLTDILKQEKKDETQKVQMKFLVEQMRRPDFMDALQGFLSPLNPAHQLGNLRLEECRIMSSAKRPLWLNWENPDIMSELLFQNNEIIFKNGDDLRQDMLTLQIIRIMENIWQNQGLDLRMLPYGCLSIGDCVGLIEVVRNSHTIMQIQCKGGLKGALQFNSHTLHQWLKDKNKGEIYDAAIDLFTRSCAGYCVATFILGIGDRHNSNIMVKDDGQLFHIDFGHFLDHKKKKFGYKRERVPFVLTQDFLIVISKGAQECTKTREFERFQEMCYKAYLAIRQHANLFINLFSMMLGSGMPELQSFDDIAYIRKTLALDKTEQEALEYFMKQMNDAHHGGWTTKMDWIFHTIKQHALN

Regarding `CNc1ncc(-c2ccc3ncc4c(c3c2)n(-c2ccc(N(C)CCOC)nc2C)c(=O)n4C)cn1` [Example 15.2, 1-{6-[(2-Methoxy-ethyl)-methyl-amino]-2-methyl-pyridin-3-yl}-3-methyl-8-(2-methylamino-pyrimidin-5-yl)-1,3-dihydro-imidazo[4,5-c]quinolin-2-one], the IC50 was found to be 0.032 µM on PI3K delta and 0.039 µM at PI3K alfa.
For `CCOc1ccc(-c2ccc3ncc4c(c3c2)n(-c2ccc(N(C)CCOC)nc2C)c(=O)n4C)cn1` [Example 15.3, 8-(6-Ethoxy-pyridin-3-yl)-1-{6-[(2-methoxy-ethyl)-methyl-amino]-2-methyl-pyridin-3-yl}-3-methyl-1,3-dihydro-imidazo[4,5-c]quinolin-2-one], in that order: 0.117 µM and 0.103 µM.
In the case of `CNc1ccc(-c2ccc3ncc4c(c3c2)n(-c2ccc(N(C)CCOC)nc2C)c(=O)n4C)cn1` [Example 15.4, 1-{6-[(2-Methoxy-ethyl)-methyl-amino]-2-methyl-pyridin-3-yl}-3-methyl-8-(6-methylamino-pyridin-3-yl)-1,3-dihydro-imidazo[4,5-c]quinolin-2-one], the IC50 on PI3K delta amounted to 0.036 µM; on PI3K alfa it was 0.046 µM.
The corresponding values for `COCCN(C)c1ccc(-n2c(=O)n(C)c3cnc4ccc(-c5cnc(N(C)C)nc5)cc4c32)c(C)n1` [Example 15.5, 8-(2-Dimethylamino-pyrimidin-5-yl)-1-{6-[(2-methoxy-ethyl)-methyl-amino]-2-methyl-pyridin-3-yl}-3-methyl-1,3-dihydro-imidazo[4,5-c]quinolin-2-one] are 0.044 µM and 0.031 µM.
As for `CCNc1cc(-c2ccc3ncc4c(c3c2)n(-c2ccc(N(C)CCOC)nc2C)c(=O)n4C)cnc1C` [Example 15.6, 8-(5-Ethylamino-6-methyl-pyridin-3-yl)-1-{6-[(2-methoxy-ethyl)-methyl-amino]-2-methyl-pyridin-3-yl}-3-methyl-1,3-dihydro-imidazo[4,5-c]quinolin-2-one], the IC50 at PI3K delta was determined as 0.009 µM; on PI3K alfa, 0.012 µM.
Consider `COCCN(C)c1ccc(-n2c(=O)n(C)c3cnc4ccc(-c5cnc6c(ccn6C)c5)cc4c32)c(C)n1` [Example 15.7, 1-{6-[(2-Methoxy-ethyl)-methyl-amino]-2-methyl-pyridin-3-yl}-3-methyl-8-(1-methyl-1H-pyrrolo[2,3-b]pyridin-5-yl)-1,3-dihydro-imidazo[4,5-c]quinolin-2-one], for which the IC50 stood at 0.021 µM on PI3K delta and 0.018 µM on PI3K alfa.
For `COCCN(C)c1ccc(-n2c(=O)n(C)c3cnc4ccc(-c5cncc(N)c5)cc4c32)c(C)n1` [Example 15.8, 8-(5-Amino-pyridin-3-yl)-1-{6-[(2-methoxy-ethyl)-methyl-amino]-2-methyl-pyridin-3-yl}-3-methyl-1,3-dihydro-imidazo[4,5-c]quinolin-2-one], in that order: 0.045 µM and 0.049 µM.
In the case of `COCCN(C)c1ccc(-n2c(=O)n(C)c3cnc4ccc(-c5cnc(CO)c(OC)c5)cc4c32)c(C)n1` [Example 15.9, 8-(6-Hydroxymethyl-5-methoxy-pyridin-3-yl)-1-{6-[(2-methoxy-ethyl)-methyl-amino]-2-methyl-pyridin-3-yl}-3-methyl-1,3-dihydro-imidazo[4,5-c]quinolin-2-one], the results for the IC50 at PI3K delta and at PI3K alfa were 0.04 µM and 0.023 µM, respectively.
For `Cc1cc(F)ncc1-n1c(=O)n(C)c2cnc3ccc(-c4cnc(N)c(C(F)(F)F)c4)cc3c21` [Example 16.1, 8-(6-Amino-5-trifluoromethyl-pyridin-3-yl)-1-(6-fluoro-4-methyl-pyridin-3-yl)-3-methyl-1,3-dihydro-imidazo[4,5-c]quinolin-2-one], in that order: 0.027 µM and 0.014 µM.
The corresponding values for `CCNc1cc(-c2ccc3ncc4c(c3c2)n(-c2cnc(F)cc2C)c(=O)n4C)cnc1C` [Example 16.2, 8-(5-Ethylamino-6-methyl-pyridin-3-yl)-1-(6-fluoro-4-methyl-pyridin-3-yl)-3-methyl-1,3-dihydro-imidazo[4,5-c]quinolin-2-one] are 0.027 µM and 0.033 µM.
The corresponding values for `CNc1ncc(-c2ccc3ncc4c(c3c2)n(-c2cnc(F)cc2C)c(=O)n4C)cn1` [Example 16.3, 1-(6-Fluoro-4-methyl-pyridin-3-yl)-3-methyl-8-(2-methylamino-pyrimidin-5-yl)-1,3-dihydro-imidazo[4,5-c]quinolin-2-one] are 0.113 µM and 0.071 µM.
With `CNc1ccc(-c2ccc3ncc4c(c3c2)n(-c2cnc(F)cc2C)c(=O)n4C)cn1` [Example 16.4, 1-(6-Fluoro-4-methyl-pyridin-3-yl)-3-methyl-8-(6-methylamino-pyridin-3-yl)-1,3-dihydro-imidazo[4,5-c]quinolin-2-one], the IC50 stood at 0.207 µM at PI3K delta and 0.047 µM on PI3K alfa.
The corresponding values for `Cc1cc(F)ncc1-n1c(=O)n(C)c2cnc3ccc(-c4cnc5c(ccn5C)c4)cc3c21` [Example 16.5, 1-(6-Fluoro-4-methyl-pyridin-3-yl)-3-methyl-8-(1-methyl-1H-pyrrolo[2,3-b]pyridin-5-yl)-1,3-dihydro-imidazo[4,5-c]quinolin-2-one] are 0.039 µM and 0.027 µM.
Regarding `CCOc1ccc(-c2ccc3ncc4c(c3c2)n(-c2cncc(C)c2)c(=O)n4C)cn1` [Example 17.1, 8-(6-Ethoxy-pyridin-3-yl)-3-methyl-1-(5-methyl-pyridin-3-yl)-1,3-dihydro-imidazo[4,5-c]quinolin-2-one], the IC50 was 0.275 µM at PI3K delta and 0.078 µM at PI3K alfa.
For `CCNc1cc(-c2ccc3ncc4c(c3c2)n(-c2ccc(OC)nc2Cl)c(=O)n4C)cnc1C` [Example 18.1, 1-(2-Chloro-6-methoxy-pyridin-3-yl)-8-(5-ethylamino-6-methyl-pyridin-3-yl)-3-methyl-1,3-dihydro-imidazo[4,5-c]quinolin-2-one], in that order: 0.022 µM and 0.04 µM.
The corresponding values for `COc1ccc(-n2c(=O)n(C)c3cnc4ccc(-c5cnc(N(C)C)nc5)cc4c32)c(Cl)n1` [Example 18.3, 1-(2-Chloro-6-methoxy-pyridin-3-yl)-8-(2-dimethylamino-pyrimidin-5-yl)-3-methyl-1,3-dihydro-imidazo[4,5-c]quinolin-2-one] are 0.004 µM and 0.005 µM.
For `CNc1ncc(-c2ccc3ncc4c(c3c2)n(-c2ccc(N(C)C)nc2C)c(=O)n4C)cn1` [Example 19.1, 1-(6-Dimethylamino-2-methyl-pyridin-3-yl)-3-methyl-8-(2-methylamino-pyrimidin-5-yl)-1,3-dihydro-imidazo[4,5-c]quinolin-2-one], in that order: 0.012 µM and 0.011 µM.
Regarding `CNc1cc(-c2ccc3ncc4c(c3c2)n(-c2ccc(N(C)C)nc2C)c(=O)n4C)cnc1C` [Example 19.2, 1-(6-Dimethylamino-2-methyl-pyridin-3-yl)-3-methyl-8-(6-methyl-5-methylamino-pyridin-3-yl)-1,3-dihydro-imidazo[4,5-c]quinolin-2-one], the IC50 on PI3K delta amounted to 0.028 µM; at PI3K alfa, 0.014 µM.
For `CCOc1ccc(-c2ccc3ncc4c(c3c2)n(-c2ccc(N(C)C)nc2C)c(=O)n4C)cn1` [Example 19.3, 1-(6-Dimethylamino-2-methyl-pyridin-3-yl)-8-(6-ethoxy-pyridin-3-yl)-3-methyl-1,3-dihydro-imidazo[4,5-c]quinolin-2-one], in that order: 0.395 µM and 0.055 µM.

(Values after patent US20100311714A1, “1H-IMIDAZO[4,5-c]QUINOLINONE COMPOUNDS” (priority 2009, published 2010).)
